{
  "source": "patent US6863211B2",
  "about": "“Omega-hydrofluoroalkyl ethers, precursor carboxylic acids and derivatives thereof, and their preparation and application” (3M Innovative Properties Company, priority 1994, dated 2005)",
  "key": {"[1]": {"test": "Fire extinguishing agent evaluation, NFPA 2001 standard, modified cup burner", "details": "cup burner modified to handle liquid compounds", "experimental": "Omega-hydrofluoroalkyl ether compounds of this invention were evaluated as fire extinguishing agents using the National Fire Protection Association 2001 Fire Protection Standard, with a cup burner modified to handle liquid compounds. The results, shown below in Table D, indicate that the compounds could be effective agents for fire extinguishing, explosion suppression, and as flammable atmosphere inerting agents."}, "[2]": {"test": "Solubilities of selected hydrocarbon solvents in the ether hydride (precision cleaning)", "format": "physicochemical", "experimental": "A sample of this compound was evaluated for use in precision cleaning applications by measuring the solubilities of selected hydrocarbon solvents in the sample."}, "[3]": {"test": "Spot-free drying: water displacement from glass and stainless steel coupons", "details": "0.2% by weight C4F9OC2F4OCF2CONHC2H4OH dissolved in the ether, 45° C., ultrasonic agitation", "experimental": "A sample of the compound was also evaluated for use in spot-free drying applications such as taught in U.S. Pat. No. 5,125,978 (Flynn et al.). A water displacement composition was prepared by dissolving 0.2% by weight of C4F9OC2F4OCF2CONHC2H4OH in C4F9—O—C2F4H. The solution was heated to 45° C. in an ultrasonic bath. Using the procedure described in U.S. Pat. No. 5,125,978, test coupons of glass and stainless steel were wetted with water and subsequently immersed into this solution with ultrasonic agitation. All water was displaced within 60 seconds."}, "[4]": {"test": "Rinse agent in co-solvent cleaning of oil-contaminated aluminum coupon", "details": "50° C., about 60 seconds methyl decanoate then about 60 seconds rinse agent, aluminum coupon with light hydrocarbon oil", "experimental": "A sample of this compound was also evaluated for use as a rinse agent in co-solvent cleaning applications. (Such cleaning applications are taught, for example, in International Patent Publication No. WO 92/22678 (Petroferm Inc.). Organic esters such as methyl decanoate have found utility as solvating agents in two-phase cleaning applications using perfluorohexane as the carrier liquid and rinse agent.) Methyl decanoate and C4F9OC2F4H were placed in separate containers and heated to 50° C. in an ultrasonic bath. A 50 mm×25 mm×1.5 mm aluminum coupon was contaminated with 0.0831 g of a light hydrocarbon oil. The contaminated coupon was first immersed in the methyl decanoate for about 60 seconds and then immersed in the C4F9OC2F4H for about 60 seconds. The C4F9OC2F4H rinsed 100 percent (as determined by weight difference) of the oil and the methyl decanoate from the coupon."}, "[5]": {"test": "Comparative boiling points", "format": "physicochemical", "description": "The unexpectedly low boiling points of compounds of the present invention render the compounds useful in processes involving temperature-sensitive substrates such as plastics. (For example, in vapor-phase cleaning, a substrate is rinsed in the condensing vapor of a boiling fluid, and in condensation heating, a substrate is heated by immersion in a boiling fluid.) In such applications, a lower-boiling fluid is preferred so as to avoid damage to the substrate. While it is known that boiling points can be reduced by selection of a compound having fewer carbon atoms, this may result in a boiling point reduction of 25° C. or more, in addition to adversely affecting other properties such as solvency."}},
  "data": [
    {"smiles": "FC(F)C(F)(F)OC(F)(F)C(F)(F)C(F)(F)C(F)(F)F", "note": "[C4F9OC2F4H, C4F9—O—C2F4H]", "values": [
      {"measurement": "Extinguishment concentration", "setting": "[1]", "value": 5.6, "unit": "vol. %"},
      {"measurement": "Solubility of chloroform in the ether hydride", "setting": "[2]; Chloroform", "value": 45, "unit": "% by weight"},
      {"measurement": "Solubility of ethylene glycol in the ether hydride", "setting": "[2]; Ethylene glycol", "value": "less than 15 % by weight"},
      {"measurement": "Solubility of hydrocarbon solvent in the ether hydride", "setting": "[2]; hexane, heptane, toluene, acetone, 2-butanone, 4-methyl-2-pentanone, ethyl acetate, methanol, ethanol, isopropanol, dimethyl formamide, trans-1,2-dichloroethylene, isopropyl ether", "value": "up to 50 % by weight"},
      {"measurement": "Solubility of light hydrocarbon oil in the ether hydride", "setting": "[2]; light hydrocarbon oil", "value": "less than 0.05 % by weight"},
      {"measurement": "Solubility of o-xylene in the ether hydride", "setting": "[2]; o-Xylene", "value": 19, "unit": "% by weight"},
      {"measurement": "Time for all water to be displaced", "setting": "[3]", "value": "≤ 60", "unit": "s"},
      {"measurement": "Oil and methyl decanoate rinsed from the coupon (by weight difference)", "setting": "[4]", "value": 100, "unit": "%"}
    ]},
    {"smiles": "FC(F)C(F)(F)C(F)(F)C(F)(F)C(F)(F)C(F)(F)C(F)(F)C(F)(F)C(F)(F)F", "note": "[C8F17CF2H, reference compound]", "values": [
      {"measurement": "Boiling Point", "setting": "[5]", "value": 136, "unit": "°C"}
    ]},
    {"smiles": "FC(F)C(F)(F)C(F)(F)OC(F)(F)C(F)(F)C(F)F", "note": "[HC3F6OC3F6H]", "values": [
      {"measurement": "Extinguishment concentration", "setting": "[1]", "value": 5.7, "unit": "vol. %"}
    ]},
    {"smiles": "FC(F)C(F)(F)C(F)(F)C(F)(F)C(F)(F)OC(F)(F)C(F)(F)C(F)(F)C(F)(F)C(F)(F)F", "note": "[C5F11OC5F10H, C5F11—O—(CF2)5H]", "values": [
      {"measurement": "Boiling Point", "setting": "[5]", "value": 150, "unit": "°C"}
    ]},
    {"smiles": "FC(F)OC(F)(F)C(F)(F)C(F)(F)C(F)(F)C(F)(F)C(F)(F)C(F)(F)C(F)(F)F", "note": "[C8F17OCF2H, C8F17—O—CF2H]", "values": [
      {"measurement": "Boiling Point", "setting": "[5]", "value": 139, "unit": "°C"}
    ]},
    {"smiles": "FC(F)C(F)(F)OC(F)(F)C(F)(F)C(F)(F)C(F)(F)C(F)(F)C(F)(F)C(F)(F)C(F)(F)F", "note": "[C8F17OC2F4H, C8F17—O—C2F4H]", "values": [
      {"measurement": "Boiling Point", "setting": "[5]", "value": 148, "unit": "°C"}
    ]},
    {"smiles": "FC(F)C(F)(F)C(F)(F)C(F)(F)OC(F)(F)C(F)(F)C(F)(F)C(F)(F)C(F)(F)C(F)(F)F", "note": "[C6F13OC4F8H, C6F13—O—C4F8—H]", "values": [
      {"measurement": "Boiling Point", "setting": "[5]", "value": 149, "unit": "°C"}
    ]},
    {"smiles": "FC(F)C(F)(F)OC(F)(F)C(F)(F)C(F)(F)C(F)(F)C(F)(F)C(F)(F)C(F)(F)F", "note": "[C7F15OC2F4H, C7F15—O—C2F4H]", "values": [
      {"measurement": "Boiling Point", "setting": "[5]", "value": 131, "unit": "°C"}
    ]},
    {"smiles": "FC(F)(F)C(F)(F)C(F)(F)C(F)(F)C(F)(F)C(F)(F)F", "note": "[perfluorohexane, reference compound]", "values": [
      {"measurement": "Oil and methyl decanoate rinsed from the coupon (by weight difference)", "setting": "[4]", "value": 98.5, "unit": "%"}
    ]},
    {"smiles": "FC(F)OC(F)(F)C(F)(F)C(F)(F)C(F)(F)C(F)(F)C(F)(F)C(F)(F)C(F)(F)C(F)(F)F", "note": "[C9F19OCF2H]", "values": [
      {"measurement": "Boiling Point", "setting": "[5]", "value": 155, "unit": "°C"}
    ]},
    {"smiles": "FC(F)C(F)(F)C(F)(F)C(F)(F)C(F)(F)C(F)(F)C(F)(F)C(F)(F)C(F)(F)C(F)(F)F", "note": "[C9F19CF2H, reference compound]", "values": [
      {"measurement": "Boiling Point", "setting": "[5]", "value": 154, "unit": "°C"}
    ]}
  ]
}
